Experimental data reported in patent US4895852A, “Antitumor alkaloids” (Harbor Branch Oceanographic Institution, Inc., priority 1987, dated 1990).
≈ marks a conversion by molar mass, not a printed value.

Tested on: P388 mouse leukemia cells
Assay: P388 mouse leukemia cell assay
Assay type: cell-based
Details: for minimal effective concentration: P388, 48 h, summary sentence on Table 1, mouse leukemia cells, read-out: good antitumor activity at concentrations of at least (against mouse leukemia cells); for IC50: P388 mouse leukemia cells, 48 hours, 37°, 10% CO2
Procedure: P388 mouse leukemia cells are grown in Dulbecco MEM medium with 10% horse serum, 4mM glutamine, and 20ug/ml gentamycin (Biologos, Inc.). Cells are incubated in 10% CO2 and subcultured 2 times per week.
1. Add compound to each well of a 24-well plate or tube and allow solvent to evaporate to dryness.
2. Add 2ml (1.2×10^5) cells to each well or tube and mix.
3. Incubate in 10% CO2 , at 37° for 48 hours.
4. Read platees with an inverted microscope, scoring activity from 1+ to 4+ as follows: ND (not detectable), >90%; 1+, 75-90%; 2+, 50-74%; 3+, 25-49%; 4+, <25% of control growth. Cell counts are performed on each tube and results are reported as percent of control. Alternatively, scoring may be expressed as IC50 which represents the minimum concentration of the composition required to inhibit 50% of the cell growth on the plate. […]

Structure (SMILES)	minimal effective concentration [µg/mL]	IC50 [µg/mL]
O=C1CCCN2C(CC1)CC13CN4CCCCC=CCCC(O)(C=C(c5nccc6c5[nH]c5ccccc56)C1CC4)C23 (stereo not shown) [Manzamine E]	≥ 5	5 (≈ 8.85 µM)
O=C1CCCN2[C@@H](CC1)C[C@]13CN4CCCC/C=C\CC[C@](O)(C=C(c5nccc6c5[nH]c5c(O)cccc56)C1CC4)[C@H]23 (stereo partly shown) [Manzamine F]	≥ 5	5 (≈ 8.61 µM)
